Data: ChEMBL document CHEMBL5113435, “Development of an automated screen for Kv7.2 potassium channels and discovery of a new agonist chemotype” (Bioorg Med Chem Lett, 2022)

Experiments:
[1] = biological target: T1, Potassium voltage-gated channel subfamily KQT member 2 (Homo sapiens, UniProt O43526); conditions: filed as agonist, dose 5.0 µM
Description: Agonist activity at Kv7.2 (unknown origin) assessed as shifting of voltage dependent activation to more negative potentials at 5 uM by SyncroPatch assay

[2] = species on record: Homo sapiens; conditions: filed as agonist, dose 5.0 µM
Description: Agonist activity at Kv7.2 W236L mutant (unknown origin) assessed as shifting of voltage dependent activation to more negative potentials at 5 uM by SyncroPatch assay

[3] = biological target: T2, Potassium voltage-gated channel subfamily KQT member 4 (Homo sapiens, UniProt P56696); assay: Agonist activity at Kv7.4 (unknown origin) expressed in CHO cells co-expressing GFP; type: cell-based
T2 sequence (P56696 whole entry): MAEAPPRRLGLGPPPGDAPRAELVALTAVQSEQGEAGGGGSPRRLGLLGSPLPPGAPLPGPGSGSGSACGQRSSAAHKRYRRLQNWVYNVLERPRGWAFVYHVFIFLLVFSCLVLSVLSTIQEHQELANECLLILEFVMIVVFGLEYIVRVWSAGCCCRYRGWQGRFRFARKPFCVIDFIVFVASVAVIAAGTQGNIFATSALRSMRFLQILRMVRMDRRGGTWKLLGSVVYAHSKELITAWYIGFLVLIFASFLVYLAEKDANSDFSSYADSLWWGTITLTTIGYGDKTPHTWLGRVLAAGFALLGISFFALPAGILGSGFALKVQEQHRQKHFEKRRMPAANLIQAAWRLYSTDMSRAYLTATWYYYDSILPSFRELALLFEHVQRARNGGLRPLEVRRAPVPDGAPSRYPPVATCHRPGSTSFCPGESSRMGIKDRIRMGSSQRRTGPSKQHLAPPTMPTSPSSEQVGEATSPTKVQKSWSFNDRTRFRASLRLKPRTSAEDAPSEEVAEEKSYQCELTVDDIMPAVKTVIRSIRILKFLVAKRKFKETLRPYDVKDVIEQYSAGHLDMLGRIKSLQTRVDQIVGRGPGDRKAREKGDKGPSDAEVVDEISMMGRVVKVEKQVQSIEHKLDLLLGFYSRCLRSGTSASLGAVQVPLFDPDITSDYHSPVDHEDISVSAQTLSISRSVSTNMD

[4] = biological target: Potassium voltage-gated channel subfamily KQT member 5 (Homo sapiens, UniProt Q9NR82); assay: Agonist activity at Kv7.5 (unknown origin) expressed in CHO cells co-expressing GFP; type: cell-based
[5] = species on record: Homo sapiens; assay: Selectivity index, ratio of EC50 for agonist activity at Kv7.5 (unknown origin) expressed in CHO cells co-expressing GFP to EC50 for agonist activity at Kv7.2/3 (unknown origin) expressed in CHO cells co-expressing GFP; type: cell-based
[6] = biological target: T1, Potassium voltage-gated channel subfamily KQT member 2; assay: Agonist activity at Kv7.2 (unknown origin) assessed as shifting of voltage dependent activation to more negative potentials by SyncroPatch assay
[7] = species on record: Homo sapiens; assay: Selectivity index, ratio of EC50 for agonist activity at Kv7.4 (unknown origin) expressed in CHO cells co-expressing GFP to EC50 for agonist activity at Kv7.2/3 (unknown origin) expressed in CHO cells co-expressing GFP; type: cell-based
[8] = biological target: Voltage-gated potassium channel, KQT; KCNQ2(Kv7.2)/KCNQ3(Kv7.3) (Homo sapiens, UniProt O43525+O43526); assay: Agonist activity at Kv7.2/3 (unknown origin) expressed in CHO cells co-expressing GFP; type: cell-based
Chain of Voltage-gated potassium channel, KQT; KCNQ2(Kv7.2)/KCNQ3(Kv7.3) (O43526 whole entry): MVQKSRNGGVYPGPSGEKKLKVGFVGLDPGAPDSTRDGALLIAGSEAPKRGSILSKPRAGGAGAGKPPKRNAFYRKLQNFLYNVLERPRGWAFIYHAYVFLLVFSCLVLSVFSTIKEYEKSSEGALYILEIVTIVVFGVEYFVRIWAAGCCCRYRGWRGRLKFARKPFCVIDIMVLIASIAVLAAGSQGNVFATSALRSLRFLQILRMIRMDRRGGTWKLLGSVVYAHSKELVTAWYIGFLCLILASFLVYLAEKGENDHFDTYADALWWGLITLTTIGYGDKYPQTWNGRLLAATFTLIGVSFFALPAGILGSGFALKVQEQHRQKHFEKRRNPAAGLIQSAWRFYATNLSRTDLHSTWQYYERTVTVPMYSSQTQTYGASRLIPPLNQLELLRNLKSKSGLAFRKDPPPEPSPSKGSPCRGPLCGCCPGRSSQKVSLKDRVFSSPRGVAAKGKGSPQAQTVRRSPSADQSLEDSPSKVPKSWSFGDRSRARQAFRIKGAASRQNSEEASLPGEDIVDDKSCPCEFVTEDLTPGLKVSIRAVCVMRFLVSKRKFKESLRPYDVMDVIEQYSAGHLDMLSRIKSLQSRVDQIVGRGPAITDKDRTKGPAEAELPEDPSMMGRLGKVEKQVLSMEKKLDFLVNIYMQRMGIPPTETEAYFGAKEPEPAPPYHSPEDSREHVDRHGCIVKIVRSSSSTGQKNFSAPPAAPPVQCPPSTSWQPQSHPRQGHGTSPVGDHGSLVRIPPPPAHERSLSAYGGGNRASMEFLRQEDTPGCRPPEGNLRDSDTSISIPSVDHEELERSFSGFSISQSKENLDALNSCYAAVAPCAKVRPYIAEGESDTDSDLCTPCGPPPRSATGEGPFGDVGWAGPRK
Chain of Voltage-gated potassium channel, KQT; KCNQ2(Kv7.2)/KCNQ3(Kv7.3) (O43525 whole entry): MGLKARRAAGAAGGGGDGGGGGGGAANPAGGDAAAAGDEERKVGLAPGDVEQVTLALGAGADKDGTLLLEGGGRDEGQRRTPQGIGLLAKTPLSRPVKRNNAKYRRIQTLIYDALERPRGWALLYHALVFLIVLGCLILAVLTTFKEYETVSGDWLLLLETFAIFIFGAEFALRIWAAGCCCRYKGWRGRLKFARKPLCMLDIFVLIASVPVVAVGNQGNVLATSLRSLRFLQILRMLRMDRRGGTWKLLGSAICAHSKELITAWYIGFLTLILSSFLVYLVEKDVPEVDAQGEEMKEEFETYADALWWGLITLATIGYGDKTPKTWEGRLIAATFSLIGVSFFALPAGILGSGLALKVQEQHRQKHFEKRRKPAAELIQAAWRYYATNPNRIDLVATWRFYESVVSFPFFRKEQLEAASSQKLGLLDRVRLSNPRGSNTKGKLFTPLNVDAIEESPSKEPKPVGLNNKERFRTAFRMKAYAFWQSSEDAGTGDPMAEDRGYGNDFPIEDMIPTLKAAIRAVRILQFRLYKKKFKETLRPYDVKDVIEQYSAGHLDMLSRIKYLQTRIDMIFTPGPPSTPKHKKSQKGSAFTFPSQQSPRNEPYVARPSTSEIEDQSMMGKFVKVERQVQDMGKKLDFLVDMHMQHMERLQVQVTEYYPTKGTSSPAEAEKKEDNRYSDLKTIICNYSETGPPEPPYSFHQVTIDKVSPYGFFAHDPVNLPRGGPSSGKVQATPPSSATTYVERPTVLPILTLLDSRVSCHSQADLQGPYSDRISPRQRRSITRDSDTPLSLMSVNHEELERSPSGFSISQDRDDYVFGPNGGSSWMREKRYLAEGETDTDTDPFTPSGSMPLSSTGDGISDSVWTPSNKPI

T1 sequence (O43526 whole entry): as the sequence (O43526 whole entry) above
Chain of Potassium voltage-gated channel subfamily KQT member 5 (Q9NR82 whole entry): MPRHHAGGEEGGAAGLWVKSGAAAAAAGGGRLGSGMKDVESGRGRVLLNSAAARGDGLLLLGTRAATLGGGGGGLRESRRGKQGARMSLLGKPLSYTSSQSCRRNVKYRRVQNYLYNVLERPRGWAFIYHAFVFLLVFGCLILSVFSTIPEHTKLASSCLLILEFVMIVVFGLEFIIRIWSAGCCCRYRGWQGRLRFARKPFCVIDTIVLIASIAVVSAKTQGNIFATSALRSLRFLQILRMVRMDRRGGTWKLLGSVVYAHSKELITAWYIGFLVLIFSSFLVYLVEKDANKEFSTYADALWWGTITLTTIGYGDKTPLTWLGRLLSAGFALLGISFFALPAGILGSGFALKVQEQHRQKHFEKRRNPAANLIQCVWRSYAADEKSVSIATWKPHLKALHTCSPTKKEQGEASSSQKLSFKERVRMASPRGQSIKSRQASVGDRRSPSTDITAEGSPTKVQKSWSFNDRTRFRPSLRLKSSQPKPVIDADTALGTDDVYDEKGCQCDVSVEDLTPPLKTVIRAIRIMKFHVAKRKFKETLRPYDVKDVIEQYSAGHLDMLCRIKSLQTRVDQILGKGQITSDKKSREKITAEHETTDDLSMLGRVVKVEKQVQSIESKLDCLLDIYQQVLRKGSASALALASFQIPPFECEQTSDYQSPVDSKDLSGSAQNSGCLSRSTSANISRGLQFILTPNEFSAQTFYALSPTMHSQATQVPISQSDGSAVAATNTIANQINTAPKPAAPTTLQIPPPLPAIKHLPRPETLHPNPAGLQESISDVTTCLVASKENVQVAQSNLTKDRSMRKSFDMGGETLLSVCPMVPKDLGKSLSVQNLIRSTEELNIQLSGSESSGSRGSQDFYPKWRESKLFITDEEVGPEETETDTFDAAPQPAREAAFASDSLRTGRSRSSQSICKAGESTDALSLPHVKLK

| Compound | V1/2 [1] | V1/2 [2] | also measured |
| --- | --- | --- | --- |
| CCOC(=O)Nc1ccc2[nH]c(-c3ccc(C(F)(F)F)cc3)cc2c1 | -4.8 mV | -6 mV |  |
| CC(C)(C)CC(=O)Nc1ccc2[nH]c(-c3ccc(C(F)(F)F)cc3)cc2c1 | -4.1 mV | 3.2 mV |  |
| CCOC(=O)Nc1cc(F)c(NCc2ccc(C(F)(F)F)cc2)c(F)c1N |  |  | EC50 [3]: 87 nM; EC50 [4]: 1060 nM |
| O=C(Cc1cc(F)cc(F)c1)Nc1ccc2[nH]c(-c3ccc(C(F)(F)F)cc3)cc2c1 | -1.1 mV | 2.4 mV |  |
| COc1ccc2c(c1)[C@@H](NC(C)=O)[C@H](C)[C@@H](c1ccccc1)N2C(=O)Nc1ccc(C(F)(F)F)cc1 | 10 mV | -2.7 mV |  |
| Nc1c(NC(=O)OC2CC2)ccc(NCc2ccc(C(F)(F)F)cc2)c1F | -44.9 mV | -9.3 mV | Ratio EC50 [5]: 50; EC50 [6]: 3030 nM; Ratio EC50 [7]: 50; EC50 [3]: 910 nM; EC50 [4]: 3780 nM; EC50 [8]: 18 nM |
| Nc1c(F)c(NCc2ncc(C(F)(F)F)cc2F)c(F)c(F)c1NC(=O)OC1CC1 |  |  | EC50 [3]: 320 nM; EC50 [4]: 3780 nM |
| CC[C@H]1Nc2ccc(OC)cc2[C@@H](NS(C)(=O)=O)[C@@H]1C | -3 mV | 2.8 mV |  |
| CCOC(=O)Nc1ccc(NCc2ccc(C(F)(F)F)cc2)c(F)c1N | -48.1 mV | 1.9 mV | V1/2 ([1]; tested as the 2H-labelled form): -45.2 mV; V1/2 ([2]; tested as the 2H-labelled form): -4.4 mV |
| O=C(Cc1ccc(OC(F)(F)F)cc1)Nc1ccc2[nH]c(-c3ccc(C(F)(F)F)cc3)cc2c1 | -8.9 mV | 3.9 mV |  |
| COc1ccc(CNc2cc3ccccc3c(=O)[nH]2)cc1 | -3 mV | 1.3 mV |  |
| COc1ccc2c(c1)[C@@H](NC(C)=O)[C@H](C)[C@@H](c1ccccc1)N2C(C)=O | 2.5 mV | 0.26 mV |  |
| CCOC(=O)Nc1ccc(NCc2ccc(F)cc2)cc1N [EZOGABINE] | -34.3 mV | 4.2 mV | EC50 [6]: 4210 nM |
| O=C(Nc1ccc2[nH]c(-c3ccc(C(F)(F)F)cc3)cc2c1)OC1CC1 | 6.2 mV | 4.7 mV |  |
| CC(C)OC(=O)Nc1ccc2[nH]c(-c3ccc(C(F)(F)F)cc3)cc2c1 | -3.2 mV | -0.31 mV |  |
| COc1ccc2c(c1)[C@@H](NC(=O)OCc1ccccc1)[C@H](C)[C@@H](c1ccccc1)N2C(=O)NC(C)C | 6.2 mV | 4.9 mV |  |
| [2H]c1cc(NC(=O)OCC)c(N)c(F)c1NCc1ccc(C(F)(F)F)cc1 |  |  | EC50 [6]: 980 nM |
| CCOC(=O)Nc1ccc(NCc2ccc(F)cc2)nc1N | -23.8 mV | 1.2 mV |  |
| CCOC(=O)Nc1ccc(NCc2ccc(C(F)(F)F)nc2)c(F)c1N |  |  | EC50 [3]: 660 nM; EC50 [4]: 540 nM; EC50 [8]: 3360 nM |
| CCOC(=O)Nc1cc(F)c2c(c1N)S(=O)(=O)CC(c1ccccc1)N2 (stereo unspecified) | 4.4 mV | 2.8 mV |  |
| CCOC(=O)Nc1ccc2[nH]c(-c3ccc(F)cc3)cc2c1 | -0.66 mV | 2.5 mV |  |
